Reference: patent US6033891A, “Nucleic acids encoding polypeptides having cellobiose dehydrogenase activity” (Novo Nordisk Biotech, Inc., priority 1999, dated 2000)
Where two headings read alike, the source gives them in different places.

Target: T1, Humicola insolens cellobiose dehydrogenase, wild type (major form, 92 kDa, pI 4.0, purified from CELLUZYME), SEQ ID NO:2 (Mycothermus thermophilus, UniProt Q9P8H5)
T1 construct: mature 22-785 after 21-residue signal peptide
T1 sequence (Q9P8H5 22-785): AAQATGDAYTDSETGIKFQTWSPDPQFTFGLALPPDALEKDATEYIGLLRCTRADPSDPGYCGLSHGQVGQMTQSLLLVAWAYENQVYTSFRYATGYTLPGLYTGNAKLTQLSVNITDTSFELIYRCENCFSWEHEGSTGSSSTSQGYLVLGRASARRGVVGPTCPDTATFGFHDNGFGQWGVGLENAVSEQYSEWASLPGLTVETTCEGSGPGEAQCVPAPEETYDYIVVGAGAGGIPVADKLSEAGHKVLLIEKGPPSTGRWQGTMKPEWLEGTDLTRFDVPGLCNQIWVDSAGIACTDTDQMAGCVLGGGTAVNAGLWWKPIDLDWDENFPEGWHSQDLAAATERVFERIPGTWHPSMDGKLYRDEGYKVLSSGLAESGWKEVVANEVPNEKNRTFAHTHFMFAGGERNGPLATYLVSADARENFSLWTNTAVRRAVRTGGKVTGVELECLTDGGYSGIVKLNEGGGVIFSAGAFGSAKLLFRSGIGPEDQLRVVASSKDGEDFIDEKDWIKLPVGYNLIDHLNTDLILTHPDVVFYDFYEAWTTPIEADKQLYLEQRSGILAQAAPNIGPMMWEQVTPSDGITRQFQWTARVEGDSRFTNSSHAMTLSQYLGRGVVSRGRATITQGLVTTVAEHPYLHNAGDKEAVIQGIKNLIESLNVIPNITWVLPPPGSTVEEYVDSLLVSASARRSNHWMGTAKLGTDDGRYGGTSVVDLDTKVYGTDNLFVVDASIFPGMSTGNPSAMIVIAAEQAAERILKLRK
Assay: Steady-state kinetics of cellobiose dehydrogenase with electron donors and acceptors (Lineweaver-Burke plots)
Type: biochemical
Settings: 0.1 M sodium phosphate pH 7.5, 40° C.; for kcat (electron donor sugar) / kcat (electron acceptor): mol of oxidized cellobiose/s/mol of enzyme
Procedure: All absorption spectra and kinetic measurements were recorded on a Hewlett-Packard 8452A Diode Array Spectrophotometer in 0.75 ml black cuvettes with 1 cm optical path. The fluorescence spectra were recorded on a PERKIN ELMER LS 50.
Potassium ferricyanide (Merck): ε420 =970 M^-1.cm^-1, 3,5-di-tert-butyl-1,2-benzoquinone (Merck): ε410 =1,400 M^-1.cm^-1, Methylene Blue (Merck): ε610 =42,000 M^-1.cm^-1, cytochrome c (Sigma, from horse heart): ε550 =8,000 M^-1.cm^-1.
All measurements were performed in 0.1 M sodium phosphate pH 7.5 buffer at 40° C. […] The reactions were monitored for 400 s as changes in absorbance at the appropriate wavelength (see above). The benzoquinone was dissolved in ethanol to a concentration of 10 mM and diluted in phosphate buffer to the appropriate concentration. The catalytic constants (kcat) were expressed as mol of oxidized cellobiose/s/mol of enzyme. One equivalent of DCPIP, Methylene Blue, or benzoquinone oxidizes one equivalent of cellobiose whereas two equivalents of cytochrome c or ferricyanide oxidizes one equivalent of cellobiose. The kinetic constants were determined using Lineweaver-Burke plots and were the result of dual determinations.

[1] = sugar + 90 μM DCPIP, read-out: Km (electron donor sugar)
[2] = electron acceptor + 225 μM cellobiose
[3] = electron acceptor + 225 μM cellobiose, read-out: Km (electron acceptor)

## CC(=O)N[C@H]1C(O)O[C@H](CO)[C@@H](O[C@@H]2O[C@H](CO)[C@H](O)[C@H](O)[C@H]2O)[C@@H]1O (stereo partly drawn) [N-Acetyllactosamine, N-acetyllactosamine]
Sugar + 90 μM DCPIP
  kcat (electron donor sugar): 0 s⁻¹

## OC[C@H]1O[C@@H](O[C@H]2[C@H](O)[C@@H](O)C(O)O[C@@H]2CO)[C@H](O)[C@@H](O)[C@@H]1O (stereo partly drawn) [Cellobiose]
Sugar + 90 μM DCPIP
  kcat (electron donor sugar): 10 s⁻¹
[1]
  Km: 11 µM

## OC[C@H]1OC(O)[C@H](O)[C@@H](O)[C@@H]1O (stereo partly drawn) [Glucose]
Sugar + 90 μM DCPIP
  kcat (electron donor sugar): 0 s⁻¹

## CN(C)c1ccc2nc3ccc(=[N+](C)C)cc-3sc2c1 [Methylene Blue]
[2]
  kcat (electron acceptor): 1.85 s⁻¹
[3]
  Km: 18 µM

## CC(=O)N[C@H]1[C@H](O[C@H]2[C@H](O)[C@@H](NC(C)=O)C(O)O[C@@H]2CO)O[C@H](CO)[C@@H](O)[C@@H]1O (stereo partly drawn) [N,N-Diacetylchitobiose, N,N-diacetylchitobiose]
Sugar + 90 μM DCPIP
  kcat (electron donor sugar): 0 s⁻¹

## OC1OC[C@@H](O[C@@H]2OC[C@@H](O)[C@H](O)[C@H]2O)[C@H](O)[C@H]1O (stereo partly drawn) [Xylobiose]
Sugar + 90 μM DCPIP
  kcat (electron donor sugar): 2.15 s⁻¹

## OC[C@H]1O[C@@H](O[C@H]2[C@H](O)[C@@H](O)C(O)O[C@@H]2CO)[C@H](O)[C@@H](O)[C@H]1O (stereo partly drawn) [Lactose]
Sugar + 90 μM DCPIP
  kcat (electron donor sugar): 10 s⁻¹
[1]
  Km: 51 µM

## OC[C@H]1O[C@@H](O[C@H]2[C@H](O)[C@@H](O)[C@H](O[C@H]3[C@H](O)[C@@H](O)[C@H](O[C@H]4[C@H](O)[C@@H](O)[C@H](O[C@H]5[C@H](O)[C@@H](O)C(O)O[C@@H]5CO)O[C@@H]4CO)O[C@@H]3CO)O[C@@H]2CO)[C@H](O)[C@@H](O)[C@@H]1O (stereo partly drawn) [Cellopentaose]
Sugar + 90 μM DCPIP
  kcat (electron donor sugar): 8.3 s⁻¹

## OC[C@H]1O[C@H](O[C@H]2[C@H](O)[C@@H](O)[C@H](O)O[C@@H]2CO)[C@H](O)[C@@H](O)[C@@H]1O [Maltose]
Sugar + 90 μM DCPIP
  kcat (electron donor sugar): 0.83 s⁻¹
[1]
  Km: 11000 µM

## O=C1C(Cl)=CC(=Nc2ccc(O)cc2)C=C1Cl [DCPIP, 2,6-dichlorophenolindophenol]
[2]
  kcat (electron acceptor): 12 s⁻¹
[3]
  Km: 26 µM
